We go through one molecule from US12337010B2, “Compositions and methods of treatment using nicotinamide mononucleotide” (Washington University, priority 2017, dated 2025).

A short description of the assay: Jejunum NAD+ levels 60 min after oral gavage of NMN. Format: in vivo, mouse. The note with it: 60 min after oral gavage (500 mg/kg), Slc12a8-knockdown mice compared to control mice. The source says:
In vivo Slc12a8 knockdown experiment. To generate shRNA-expressing lentiviral constructs, 56-bp double-stranded oligonucleotides, each of which contains a sense target sequence, a microRNA-based loop sequence ([…]; SEQ ID NO: 4), an antisense sequence, a termination sequence of four thymidines, and appropriate restriction enzyme sites at both ends, were generated for mouse Slc12a8 and firefly luciferase (fLuc) and cloned into the U6-PGK-GFP vector provided by the Viral Vectors Core at Washington University School of Medicine. The sense Slc12a8 sequence is ‘5-[…]-3’ (SEQ ID NO: 5). Lentiviruses were produced as previously described (Satoh, A. et al., Cell Metab., 18, 416-430, 2013). Knockdown efficiency was tested using primary intestinal cultures (Sato, T. & Clevers, H., Methods Mol. Biol. 945, 319-328, 2013). Large-scale lentivirus production was carried on by the Viral Vectors Core at the Hope Center for Neurological Disorders at Washington University. […]
Lentiviruses carrying control firefly luciferase (fLuc) shRNA and Slc12a8 shRNA were generated as described supra. […] Slc12a8 protein expression levels in control shfLuc lentivirus- and shSlc12a8 lentivirus-infected jejunum and ileum samples were measured through Western blots (FIG. 17). […] Then NAD+ levels were measured by HPLC in these samples (analyzed by ANOVA with Tukey's test).

For the molecule `NC(=O)c1ccc[n+]([C@@H]2O[C@H](COP(=O)([O-])O)[C@@H](O)[C@H]2O)c1` [NMN, nicotinamide mononucleotide], the “NAD+ levels in the jejunum” value was “significantly decreased”.
